Laboratory results as given in patent publication US9156831B2, “Chemical compounds” (ASTRAZENECA AB, priority 2013, dated 2015).

Key:
Test in all cases: Cell proliferation assay (MTS)
H838 = type: cell-based, human
Description: (§1) The sensitivity of a panel of human cancer cell lines to the effects of compounds was determined in a standard proliferation assay.
(§2) Cells were plated in 96 well plates at densities of 1000-6000 cells per well in RPMI media containing 10% FBS. After incubation at 37° C. for 16 hours, various concentrations of compound were added to the assay plates. After incubation for an additional 72 h, the viable cells were determined by the addition of MTS reagent (Promega #3582) to each well for 2 h. MTS is a tetrazolium salt that is bioreduced by metabolically active cells in the presence of an electron coupling reagent to formazan. The formazan product was then quantitated by absorbance at 490 nm, as an indicator of the relative number of live cells. In order to determine the GI50 (concentration at which growth of cells was inhibited by 50%) the relative number of cells present at the time of drug addition was determined by comparison with the MTS readout before the drug was added, and this value was subtracted from the 72 hr value of untreated cells as a measure of cell growth during the assay.

22RV1 = type: cell-based, human
Description: as §1, §2

PANC0327 = type: cell-based, human
Description: (§3) The sensitivity of a panel of human cancer cell lines to the effects of compounds was determined in a standard proliferation assay. Cell lines were sourced through the AstraZeneca Cell Bank.
as §2

H520 = test system: H520
Description: as §1, §2

H1437 = type: cell-based, human
Description: as §1, §2

HCC1419 = type: cell-based, human
Description: as §1, §2

H1793 = type: cell-based, human
Description: as §1, §2

J82 = type: cell-based, human
Description: as §1
(§4) Cells were plated in 96 well plates at densities of 1000-6000 cells per well in RPMI media containing 10% FBS. After incubation at 37° C. for 16 hours, various concentrations of compound were added to the assay plates. After incubation for an additional 72 h, the viable cells were determined by the addition of MTS reagent (Promega #3582) to each well for 2 h. […] The formazan product was then quantitated by absorbance at 490 nm, as an indicator of the relative number of live cells. In order to determine the GI50 (concentration at which growth of cells was inhibited by 50%) the relative number of cells present at the time of drug addition was determined by comparison with the MTS readout before the drug was added, and this value was subtracted from the 72 hr value of untreated cells as a measure of cell growth during the assay.

MDAMB453 = type: cell-based, human
Description: as §3, §2

H2126 = type: cell-based, human
Description: as §3, §2

PANC0403 = type: cell-based, human
Description: as §1, §2

HCT8 = type: cell-based, human
Description: as §3, §2

CALU6 = type: cell-based, human
Description: as §3, §2

ZR751 = type: cell-based, human
Description: as §3, §2

HARA = type: cell-based, human
Description: as §1, §2

CAPAN1 = type: cell-based, human
Description: as §1, §2

OCIAML2 = type: cell-based, human
Description: as §1, §2

ARH77 = type: cell-based, human
Description: as §1, §2

H322 = type: cell-based, human
Description: as §1, §4

H226 = type: cell-based, human
Description: as §1, §2

RERFLCSQ1 = type: cell-based, human
Description: as §1, §2

A2058 = type: cell-based, human
Description: as §1, §2

QGP1 = type: cell-based, human
Description: as §1, §4

QGY7703 = type: cell-based, human
Description: as §1, §2

SNU761 = type: cell-based, human
Description: as §1, §2

COLO205 = type: cell-based, human
Description: as §1, §4

IM9 = type: cell-based, human
Description: as §3, §2

RS411 = type: cell-based, human
Description: as §1, §2

SKMES1 = type: cell-based, human
Description: as §1, §2

HT1197 = type: cell-based, human
Description: as §1, §2

OE19 = type: cell-based, human
Description: as §1, §4

UMUC3 = type: cell-based, human
Description: as §1, §2

SNU354 = type: cell-based, human
Description: as §1, §4

HUH1 = test system: HUH1
Description: as §1, §4

A549 = type: cell-based, human
Description: as §1, §2

SMMC7721 = type: cell-based, human
Description: as §1, §4

HCC1569 = type: cell-based, human
Description: as §3, §4

JIMT1 = type: cell-based, human
Description: as §1, §2

5637 = type: cell-based, human
Description: as §1, §2

BXPC3 = type: cell-based, human
Description: as §1, §4

HS746T = type: cell-based, human
Description: as §1, §2

MV411 = type: cell-based, human
Description: as §1, §2

[1] = Homo sapiens, Breast, PIK3CA WT
[2] = Homo sapiens, Bladder, PIK3CA MUT
[3] = Homo sapiens, Bladder, PIK3CA WT

## CCn1nc(C2CCN(C(=O)CCO)CC2)nc1-c1cnc(N)c(-c2nnc(C(C)(C)C)o2)n1 [Example 3, 1-(4-(5-(5-amino-6-(5-tert-butyl-1,3,4-oxadiazol-2-yl)pyrazin-2-yl)-1-ethyl-1H-1,2,4-triazol-3-yl)piperidin-1-yl)-3-hydroxypropan-1-one]
H838
  Category: Resistant (resistant (GI50>1.0 μM))
H838; Homo sapiens, NCI-H838, Lung, PIK3CA WT
  GI50: 30 µM
22RV1
  Category: Resistant (resistant (GI50>1.0 μM))
22RV1; Homo sapiens, Prostate, PIK3CA MUT
  GI50: 4.14 µM
PANC0327
  Category: Resistant (resistant (GI50>1.0 μM))
PANC0327; Homo sapiens, PANC-03-27, Pancreas, PIK3CA WT
  GI50: 8.03 µM
H520; H520
  Category: Resistant (resistant (GI50>1.0 μM))
H520; Homo sapiens, NCI-H520
  GI50: 6.62 µM
H1437
  Category: Resistant (resistant (GI50>1.0 μM))
H1437; Homo sapiens, NCI-H1437, Lung, PIK3CA WT
  GI50: 30 µM
HCC1419
  Category: Sensitive (sensitive (GI50<=1.0 μM))
HCC1419; [1]
  GI50: 780 nM
H1793
  Category: Resistant (resistant (GI50>1.0 μM))
H1793; Homo sapiens, NCI-H1793, Lung, PIK3CA WT
  GI50: 7.33 µM
J82
  Category: Resistant (resistant (GI50>1.0 μM))
J82; [2]
  GI50: 13.4 µM
MDAMB453
  Category: Sensitive (sensitive (GI50<=1.0 μM))
MDAMB453; Homo sapiens, MDA-MB-453, Breast, PIK3CA MUT
  GI50: 456 nM
H2126
  Category: Resistant (resistant (GI50>1.0 μM))
H2126; Homo sapiens, NCI-H2126, Lung, PIK3CA WT
  GI50: 12.9 µM
PANC0403
  Category: Resistant (resistant (GI50>1.0 μM))
PANC0403; Homo sapiens, Panc 04.03, Pancreas, PIK3CA WT
  GI50: 6.47 µM
HCT8
  Category: Resistant (resistant (GI50>1.0 μM))
HCT8; Homo sapiens, HCT-8, Colon, PIK3CA MUT
  GI50: 2510 nM
CALU6
  Category: Resistant (resistant (GI50>1.0 μM))
CALU6; Homo sapiens, Calu-6, Lung, PIK3CA WT
  GI50: 26.2 µM
ZR751
  Category: Resistant (resistant (GI50>1.0 μM))
ZR751; Homo sapiens, ZR-75-1, Breast, PIK3CA WT
  GI50: 3.56 µM
HARA
  Category: Resistant (resistant (GI50>1.0 μM))
HARA; Homo sapiens, Lung, PIK3CA WT
  GI50: 1910 nM
CAPAN1
  Category: Resistant (resistant (GI50>1.0 μM))
CAPAN1; Homo sapiens, CAPAN-1, Pancreas, PIK3CA WT
  GI50: 30 µM
OCIAML2
  Category: Resistant (resistant (GI50>1.0 μM))
OCIAML2; Homo sapiens, OCI-AML2, Blood/lymph, PIK3CA WT
  GI50: 30 µM
ARH77
  Category: Resistant (resistant (GI50>1.0 μM))
ARH77; Homo sapiens, ARH-77, Blood/lymph, PIK3CA WT
  GI50: 30 µM
H322
  Category: Resistant (resistant (GI50>1.0 μM))
H322; Homo sapiens, NCI-H322, Lung, PIK3CA WT
  GI50: 8.23 µM
H226
  Category: Resistant (resistant (GI50>1.0 μM))
H226; Homo sapiens, NCI-H226, Lung, PIK3CA WT
  GI50: 10.1 µM
RERFLCSQ1; Homo sapiens, RERF-LC-Sq1, Lung, PIK3CA MUT
  GI50: 771 nM
RERFLCSQ1; RERFLCSQ1
  Category: Sensitive (sensitive (GI50<=1.0 μM))
A2058
  Category: Resistant (resistant (GI50>1.0 μM))
A2058; Homo sapiens, Skin, PIK3CA WT
  GI50: 30 µM
QGP1
  Category: Resistant (resistant (GI50>1.0 μM))
QGP1; Homo sapiens, QGP-1, Pancreas, PIK3CA WT
  GI50: 4.87 µM
QGY7703
  Category: Resistant (resistant (GI50>1.0 μM))
QGY7703; Homo sapiens, QGY-7703, Liver, PIK3CA WT
  GI50: 11.1 µM
SNU761
  Category: Resistant (resistant (GI50>1.0 μM))
SNU761; Homo sapiens, Liver, PIK3CA WT
  GI50: 18.5 µM
COLO205
  Category: Resistant (resistant (GI50>1.0 μM))
COLO205; Homo sapiens, COLO 205, Colon, PIK3CA WT
  GI50: 8.93 µM
IM9
  Category: Resistant (resistant (GI50>1.0 μM))
IM9; Homo sapiens, IM-9, Blood/lymph, PIK3CA WT
  GI50: 30 µM
RS411
  Category: Sensitive (sensitive (GI50<=1.0 μM))
RS411; Homo sapiens, RS4-11, Blood/lymph, PIK3CA WT
  GI50: 90.3 nM
SKMES1
  Category: Resistant (resistant (GI50>1.0 μM))
SKMES1; Homo sapiens, SK-MES-1, Lung, PIK3CA WT
  GI50: 19.5 µM
HT1197
  Category: Resistant (resistant (GI50>1.0 μM))
HT1197; [2]
  GI50: 2800 nM
OE19
  Category: Resistant (resistant (GI50>1.0 μM))
OE19; Homo sapiens, Esophagus, PIK3CA WT
  GI50: 5.13 µM
UMUC3
  Category: Resistant (resistant (GI50>1.0 μM))
UMUC3; [3]
  GI50: 6.22 µM
SNU354
  Category: Resistant (resistant (GI50>1.0 μM))
SNU354; Homo sapiens, SNU-354, Liver, PIK3CA WT
  GI50: 5.6 µM
HUH1; HUH1
  Category: Resistant (resistant (GI50>1.0 μM))
HUH1; Homo sapiens, HuH-1
  GI50: 22.3 µM
A549
  Category: Resistant (resistant (GI50>1.0 μM))
A549; Homo sapiens, Lung, PIK3CA WT
  GI50: 10.2 µM
SMMC7721
  Category: Resistant (resistant (GI50>1.0 μM))
SMMC7721; Homo sapiens, SMMC-7721, Liver, PIK3CA WT
  GI50: 30 µM
HCC1569
  Category: Resistant (resistant (GI50>1.0 μM))
HCC1569; [1]
  GI50: 1370 nM
JIMT1
  Category: Resistant (resistant (GI50>1.0 μM))
JIMT1; Homo sapiens, JIMT-1, Breast, PIK3CA MUT
  GI50: 1460 nM
5637
  Category: Resistant (resistant (GI50>1.0 μM))
5637; [3]
  GI50: 9.63 µM
BXPC3
  Category: Resistant (resistant (GI50>1.0 μM))
BXPC3; Homo sapiens, BXPC-3, Pancreas, PIK3CA WT
  GI50: 14.1 µM
HS746T
  Category: Resistant (resistant (GI50>1.0 μM))
HS746T; Homo sapiens, Stomach, PIK3CA WT
  GI50: 5.98 µM
MV411
  Category: Sensitive (sensitive (GI50<=1.0 μM))
MV411; Homo sapiens, MV4-11, Blood/lymph, PIK3CA WT
  GI50: 382 nM
